Results: paper PMC10951960, “CGP7930 - An allosteric modulator of GABABRs, GABAARs and inwardly-rectifying potassium channels” (Neuropharmacology, 2023)

Key:
[1] = tested on: native GABAARs in hippocampal neurons; experiment: muscimol-activated and CGP7930-activated GABAAR currents in hippocampal neurons, Cs+-based internal solution; assay type: cell-based, rat; details: read-out: muscimol EC50; hippocampal neurons, n = 9
Protocol: (§1) Briefly, single cells derived from dissected hippocampi were seeded onto glass coverslips coated with poly-D-lysine in a plating medium containing minimum essential media with 5% v/v heat-inactivated FCS, 5% v/v heat-inactivated horse serum, penicillin-G/streptomycin (100 U/100 μg/ml), 2 mM L-glutamine, and 20 mM glucose. Two hr after plating the media was changed to a Neurobasal-A based maintenance media supplemented with 1% v/v B-27, penicillin-G/streptomycin (100 U/100 μg/ml), 0.5% v/v Glutamax and 35 mM glucose.
(§2) Spontaneous inhibitory postsynaptic currents (sIPSCs) were recorded from cultured hippocampal neurons at 12–17 days in vitro (DIV). […] For recording K^+ currents in GIRK cells and neurons, the bath solution was switched to a high K^+ solution containing 25 mM KCl and reduced NaCl (120 mM), to shift the equilibrium potential for K^+ from approximately −90 to −47 mV, thus reversing the direction of K^+ current flux to net inward. GABABR-activated K^+ currents in cultured neurons were recorded in the additional presence of 2 mM kynurenic acid and 20 μM picrotoxin.
(§3) Borosilicate glass electrodes (3–5 MΩ) were filled with a K^+-based internal solution for recording GIRK currents containing (mM): 120 KCl, 2 MgCl2, 11 EGTA, 30 KOH, 10 HEPES, 1 CaCl2, 1 GTP, 2 ATP, 14 creatine phosphate, pH 7.0. GABAAR currents and sIPSCs were recorded with a Cs-based internal solution containing (mM): 120 CsCl, 1 MgCl2, 11 EGTA, 30 KOH, 10 HEPES, 1 CaCl2, and 2 K2ATP; pH 7.2. […] Cells were held at −60 mV (sIPSCs) or −60/−70 mV (K^+ currents). Voltage clamp recordings were undertaken after optimising series resistance (Rs, <10 MΩ) and compensating for the whole-cell membrane capacitance. Membrane currents were filtered at 5 kHz (−3 dB, 6th pole Bessel, 36 dB/octave) and stored for analysis with Clampex 10.
Concentration-response curves were generated by measuring the current (I) for each ligand concentration and normalising to the maximal current response (Imax).

[2] = tested on: GABAARs in hippocampal neurons; experiment: slow inward current directly activated by CGP7930 in hippocampal neurons in high K+ external solution and its block by GABAAR antagonists; assay type: cell-based, rat; details: antagonist 100 μM, P < 0.001
Protocol: as §2
CGP7930 modulation at neuronal GABABRs was also characterised using baclofen-activated GIRK currents in hippocampal cultures similarly bathed in a high external K^+ concentration.

[3] = tested on: GABAAR-mediated tonic inhibition in hippocampal neurons; experiment: tonic inhibition: baseline holding current and RMS noise in cultured hippocampal neurons; assay type: cell-based, rat; details: Control to Bic (50 μM bicuculline)
Protocol: as §1, §2, §3
For tonic inhibition, to determine the average holding currents, a 30 s continuous holding current recording was sampled every 1 s, discarding epochs that coincided with sIPSCs. Any effect of CGP7930 or bicuculline on the holding current was defined by subtracting the average holding currents in control and during drug application. The baseline root-mean-square current variance (RMS) was calculated before and during drug treatment. This was estimated from a continuous (20 s) current recording, sampled every 100 ms. The median current was calculated every 5 s and values more than twice the standard deviation from the median (usually due to IPSCs) were eliminated. All drugs were applied using a U-tube rapid drug application system, or more slowly via bath perfusion.
We assessed the effect of CGP7930 on tonic inhibition in hippocampal cultured neurons.

[4] = biological target: T1, GABABR (Rattus norvegicus, UniProt O88871+Q9Z0U4); experiment: GABABR antagonism by CGP55845 in hippocampal whole-cell recording; assay type: cell-based; details: n = 6, data not shown; read-out: IC50 of GABABR antagonist under our recording conditions
T1 construct: endogenous in cells; host or cells: cultured rat (E18 Sprague-Dawley) hippocampal neurons, 12-17 DIV
T1 sequence (Q9Z0U4 17-960 limits assumed): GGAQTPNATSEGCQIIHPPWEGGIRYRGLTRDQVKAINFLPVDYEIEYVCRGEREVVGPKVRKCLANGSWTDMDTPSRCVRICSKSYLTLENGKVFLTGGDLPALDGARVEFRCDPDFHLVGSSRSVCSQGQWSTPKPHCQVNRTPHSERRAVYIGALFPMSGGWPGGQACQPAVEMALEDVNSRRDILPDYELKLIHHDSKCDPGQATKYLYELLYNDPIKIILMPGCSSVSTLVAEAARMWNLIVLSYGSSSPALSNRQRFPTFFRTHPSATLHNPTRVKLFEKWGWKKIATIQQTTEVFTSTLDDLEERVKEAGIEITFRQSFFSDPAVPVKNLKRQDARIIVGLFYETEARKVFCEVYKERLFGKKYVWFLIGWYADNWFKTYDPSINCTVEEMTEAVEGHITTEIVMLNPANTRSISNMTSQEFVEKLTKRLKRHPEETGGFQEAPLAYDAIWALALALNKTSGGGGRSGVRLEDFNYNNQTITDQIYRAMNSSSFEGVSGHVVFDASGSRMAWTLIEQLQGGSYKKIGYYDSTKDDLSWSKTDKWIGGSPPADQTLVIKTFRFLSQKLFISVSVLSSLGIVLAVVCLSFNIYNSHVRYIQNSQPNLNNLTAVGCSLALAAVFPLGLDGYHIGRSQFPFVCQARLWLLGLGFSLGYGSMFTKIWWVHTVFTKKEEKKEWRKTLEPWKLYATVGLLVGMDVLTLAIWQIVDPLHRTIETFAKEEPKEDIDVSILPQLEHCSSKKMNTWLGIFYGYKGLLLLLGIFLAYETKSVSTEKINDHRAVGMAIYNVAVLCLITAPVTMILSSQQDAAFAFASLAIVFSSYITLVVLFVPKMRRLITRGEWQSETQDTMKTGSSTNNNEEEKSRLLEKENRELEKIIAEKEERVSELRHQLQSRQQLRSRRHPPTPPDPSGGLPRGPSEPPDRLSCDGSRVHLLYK
T1 sequence (O88871 41-940): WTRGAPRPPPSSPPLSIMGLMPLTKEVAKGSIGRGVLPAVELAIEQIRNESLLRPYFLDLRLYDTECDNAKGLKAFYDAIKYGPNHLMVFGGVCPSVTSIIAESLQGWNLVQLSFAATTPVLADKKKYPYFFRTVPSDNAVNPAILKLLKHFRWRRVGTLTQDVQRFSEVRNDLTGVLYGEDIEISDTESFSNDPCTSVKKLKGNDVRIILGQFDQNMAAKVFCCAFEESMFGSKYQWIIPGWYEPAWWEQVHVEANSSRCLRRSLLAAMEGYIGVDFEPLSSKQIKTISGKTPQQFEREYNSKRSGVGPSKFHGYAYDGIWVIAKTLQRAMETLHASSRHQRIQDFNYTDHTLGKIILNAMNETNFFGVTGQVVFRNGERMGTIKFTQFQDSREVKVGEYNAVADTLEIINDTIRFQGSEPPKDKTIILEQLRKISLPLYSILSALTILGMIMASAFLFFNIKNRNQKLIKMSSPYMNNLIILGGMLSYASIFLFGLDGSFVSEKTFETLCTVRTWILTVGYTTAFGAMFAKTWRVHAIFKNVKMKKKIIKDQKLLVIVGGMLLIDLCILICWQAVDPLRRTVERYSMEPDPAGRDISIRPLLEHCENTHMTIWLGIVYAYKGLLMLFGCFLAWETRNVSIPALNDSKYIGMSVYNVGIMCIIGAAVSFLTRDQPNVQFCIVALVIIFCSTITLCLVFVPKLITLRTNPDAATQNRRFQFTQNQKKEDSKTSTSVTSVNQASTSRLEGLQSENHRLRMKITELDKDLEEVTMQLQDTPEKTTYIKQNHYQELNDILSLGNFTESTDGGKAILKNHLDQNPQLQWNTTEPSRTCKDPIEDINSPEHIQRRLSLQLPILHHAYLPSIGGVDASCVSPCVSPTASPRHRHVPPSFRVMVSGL

Work on `NCc1cc(=O)[nH]o1` [muscimol] yielded an EC50 [1] of 2700 ± 100 nM.
With picrotoxin the “effect on the slow inward current caused by > 3 μM CGP7930” value [2] was “abolished”.
With `CN1CCc2cc3c(cc2[C@H]1[C@@H]1OC(=O)c2c1ccc1c2OCO1)OCO3` [bicuculline] the “effect on the slow inward current caused by > 3 μM CGP7930” value [2] was “abolished” and the “Tonic currents (change in baseline holding current)” value [3] was 38.02 ± 7.43 (6) pA.
In the case of `C[C@H](NC[C@H](O)CP(=O)(O)Cc1ccccc1)c1ccc(Cl)c(Cl)c1` [CGP55845], the IC50 [4] is reported as 10 ± 0.7 nM.
